The text below walks through data of patent publication US11932845B2, “Microorganisms and methods for production of 4-hydroxybutyrate, 1,4-butanediol and related compounds” (priority 2012, dated 2024).

Read-outs that look alike come from different tables or passages of the source.

What is called Km is the substrate concentration at which the rate is half of its maximum.

The test system of data set [1] is alcohol dehydrogenase from Brevibacterium sp KU. Particulars: oxidation of alcohols, cited from earlier work; for Relative Activity: 2-phenylethanol taken as 100%.
Data set [2] deals with L(+)-lactate dehydrogenase from A. eutrophus. Particulars: compared with that on pyruvate; cited from earlier work.
Data set [3] concerns the target T1, L(+)-lactate dehydrogenase from rabbit muscle (Oryctolagus cuniculus, UniProt P13491).
T1 construct: host or cells: rabbit muscle
Particulars: compared with that on pyruvate; cited from earlier work.

Data set [4] has as its system D(−)-lactate dehydrogenase from L. leichmanii. Particulars: compared with that on pyruvate; cited from earlier work.
The target in data set [5] is homoserine kinase (Escherichia coli, UniProt P00547). Particulars: cited from earlier work.
Data set [6] deals with aminotransferase. Particulars: activity considered 100% on tyrosine; cited from earlier work.
In data set [7] the test system is cytochrome-bd oxidases. Particulars: cited from earlier work; for Km: pH 7.
Data set [8] concerns 4-HB to BDO conversion pathway. Nature of the data set: Production of BDO from 10 mM 4-HB in recombinant E. coli strains. Particulars: for BDO: 10 mM 4-HB, 24 hours, cat2 (0034) on pZA33.
Method: For the BDO production experiments, cat2 from Porphyromonas gingivalis W83 (gene 0034) was included on pZA33 for the conversion of 4-HB to 4-HB-CoA, while the candidate dehydrogenase genes were expressed on pZE13. The host strain was MG1655 lacI^Q. Along with the alcohol and aldehyde dehydrogenase candidates, we also tested the ability of CoA-dependent succinic semialdehyde dehydrogenases (sucD) to function in this step, due to the similarity of the substrates. Cells were grown to an OD of about 0.5 in LB medium supplemented with 10 mM 4-HB, induced with 1 mM IPTG, and culture broth samples taken after 24 hours and analyzed for BDO as described below.
Finally, the construct was tested for participation in the conversion of 4-HB to BDO. Host strains were transformed with the pZA33-0020-0021 construct described and pZE13-0002, and compared to use of cat2 in BDO production using the aerobic procedure used above in FIG. 5.
The subject of data set [9] is Alcohol dehydrogenase. Nature of the data set: Alcohol dehydrogenase (ADH) assay in the reductive direction, cell extracts. Particulars: cell extracts from MG1655 lacI^Q containing pZA33.
Method: Alcohol (ADH) and aldehyde (ALD) dehydrogenase was assayed in the reductive direction using a procedure adapted from several literature sources (Durre et al., FEMS Microbiol. Rev. 17:251-262 (1995); Palosaari and Rogers, J. Bacteriol. 170:2971-2976 (1988) and Welch et al., Arch. Biochem. Biophys. 273:309-318 (1989). The oxidation of NADH is followed by reading absorbance at 340 nm every four seconds for a total of 240 seconds at room temperature. The reductive assays were performed in 100 mM MOPS (adjusted to pH 7.5 with KOH), 0.4 mM NADH, and from 1 to 50 μl of cell extract. The reaction is started by adding the following reagents: 100 μl of 100 mM acetaldehyde or butyraldehyde for ADH, or 100 μl of 1 mM acetyl-CoA or butyryl-CoA for ALD. The Spectrophotometer is quickly blanked and then the kinetic read is started. The resulting slope of the reduction in absorbance at 340 nm per minute, along with the molar extinction coefficient of NAD(P)H at 340 nM (6000) and the protein concentration of the extract, can be used to determine the specific activity.
Gene candidates for the 4-HB to BDO conversion pathway were next tested for activity when expressed in the E. coli host MG1655 lacI^Q. Recombinant strains containing each gene candidate expressed on pZA33 were grown in the presence of 0.25 mM IPTG for four hours at 37° C. to fully induce expression of the enzyme. Four hours after induction, cells were harvested and assayed for ADH and ALD activity as described above.

homoserine kinase, sequence (P00547 whole entry): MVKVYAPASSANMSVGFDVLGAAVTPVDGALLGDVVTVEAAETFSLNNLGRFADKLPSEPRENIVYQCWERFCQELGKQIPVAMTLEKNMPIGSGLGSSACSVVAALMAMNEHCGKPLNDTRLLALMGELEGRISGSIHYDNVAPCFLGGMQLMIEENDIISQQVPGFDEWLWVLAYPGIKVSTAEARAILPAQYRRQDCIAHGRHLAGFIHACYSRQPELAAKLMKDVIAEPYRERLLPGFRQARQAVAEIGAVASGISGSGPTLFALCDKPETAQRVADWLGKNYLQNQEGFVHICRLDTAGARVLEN

With `CC(O)c1ccccc1` (stereo not shown) [1-Phenylethanol], the “Relative Activity” value in [1] is recorded as 46 0%.

With `CCC(=O)C(=O)O` [2-Oxobutyrate], the “Activity (%) of L(+)-lactate dehydrogenase from A. eutrophus” value (“Activity (%) … from A. eutrophus” below) in [2] is 107.0%. Besides, in data set [3], the “Activity (%) of L(+)-lactate dehydrogenase from rabbit muscle” value (“Activity (%) … from rabbit muscle” below) is 18.6%. Further, the “Activity (%) of D(−)-lactate dehydrogenase from L. leichmanii” value (from here on “Activity (%) … from L. leichmanii”) in data set [4] was 1.1%.

For `CCCC(=O)C(=O)O` [2-Oxovalerate], the “Activity (%) … from A. eutrophus” value in [2] was 125.0%. Also, in data set [3], the “Activity (%) … from rabbit muscle” value is listed as 0.7%. Also, the “Activity (%) … from L. leichmanii” value in [4] is 0.0%.

Consider `O=C(O)C(=O)CF` [3-Fluoropyruvate], for which the “Activity (%) … from A. eutrophus” value in [2] was 33.6%. Besides, the “Activity (%) … from rabbit muscle” value in data set [3] is listed as 74.3%. In addition, the “Activity (%) … from L. leichmanii” value in data set [4] was 40.0%.

`CC(C)C(=O)C(=O)O` [3-Methyl-2-oxobutyrate]: in data set [2], the “Activity (%) … from A. eutrophus” value was 28.5%. Further, the “Activity (%) … from rabbit muscle” value in data set [3] is reported as 0.0%. The “Activity (%) … from L. leichmanii” value in [4] is on record as 0.0%.

As for `CCC(C)C(=O)C(=O)O` (stereo not shown) [3-Methyl-2-oxovalerate], the “Activity (%) … from A. eutrophus” value in data set [2] was 5.3%. For the same molecule, the “Activity (%) … from rabbit muscle” value in [3] is 0.0%. Further, in data set [4], the “Activity (%) … from L. leichmanii” value was 0.0%.

For the molecule `OCCCc1ccccc1` [3-Phenylpropanol], in data set [1], the “Relative Activity” value is on record as 135 0% and the Michaelis-Menten constant (Km) is 33 µM.

For the molecule `CC(C)CC(=O)C(=O)O` [4-Methyl-2-oxopentanoate], the “Activity (%) … from A. eutrophus” value in data set [2] is 39.0%. Moreover, the “Activity (%) … from rabbit muscle” value in data set [3] is given as 1.4%. For the same molecule, the “Activity (%) … from L. leichmanii” value in [4] is 1.1%.

For the molecule `C[C@@H](CO)c1ccccc1` [(R)-2-Phenylpropanol], in [1], the “Relative Activity” value was 63 0% and the Michaelis constant (Km) was 20 µM.

In the case of `C[C@H](CO)c1ccccc1` [(S)-2-Phenylpropanol], in data set [1], the “Relative Activity” value was 156 0% and the Km is 157 µM.

Turning to `N[C@H](CCO)C(=O)O` [D-homoserine], the “% kcat” value in data set [5] is 32%.

For `CCO` [Ethanol], the “Relative Activity” value in [1] is on record as 76 0%.

For the molecule `O=CC(=O)O` [Glyoxylate], the “Activity (%) … from A. eutrophus” value in data set [2] is on record as 8.7%. The “Activity (%) … from L. leichmanii” value in [4] is on record as 5.0%.

As to `N[C@H](CO)CCO` [L-2-amino-1,4-butanediol], the “% kcat” value in data set [5] was 7.9%.

Take `N[C@@H](CCCO)C(=O)O` [L-2-amino-5-hydroxyvalerate]: in [5], the “% kcat” value was 9.9% and the Km is 1100 ± 500 µM.

Turning to `N[C@@H](CC=O)C(=O)O` [L-aspartate β-semialdehyde], in data set [5], the “% kcat” value is 8.2% and the Km was 280 ± 20 µM.

Consider `CCOC(=O)[C@@H](N)CCO` [L-homoserine ethyl ester], for which the “% kcat” value in data set [5] is reported as 74%.

As for `CC(C)COC(=O)[C@@H](N)CCO` [L-homoserine isobutyl ester], in [5], the “% kcat” value is on record as 84%.

For `CC(C)OC(=O)[C@@H](N)CCO` [L-homoserine isopropyl ester], the “% kcat” value in [5] is recorded as 74%.

Consider `COC(=O)[C@@H](N)CCO` [L-homoserine methyl ester], for which the “% kcat” value in [5] is 80%.

On to `CCCOC(=O)[C@@H](N)CCO` [L-homoserine n-propyl ester], for which the “% kcat” value in data set [5] is 76%.

In the case of `N[C@@H](CCO)C(=O)O` [L-homoserine], the “% kcat” value in [5] is 100%.

For `CCCCOC(=O)[C@@H](N)CCO` [L-homserine n-butyl ester], in [5], the “% kcat” value is reported as 160% and the Michaelis constant (Km) was 5800 ± 800 µM.

In the case of `CCCCO` [Sample 1-Butanol, 1-Butanol], in data set [1], the “Relative Activity” value is 111 0%.

For the molecule `CCCCCCCCCCCCO` [Sample 1-Dodecanol, 1-Dodecanol], in [1], the “Relative Activity” value is reported as 68 0%.

For `CCCCCCCCO` [Sample 1-Octanol, 1-Octanol], the “Relative Activity” value in data set [1] is 101 0%.

`CC(C)O` [Sample 2-Propanol, 2-Propanol]: in [1], the “Relative Activity” value is reported as 54 0%.

On to `CC(C)C[C@H](N)C(=O)O` [leucine], for which the activity in data set [6] is listed as 25%.

As for `CSCC[C@H](N)C(=O)O` [methionine], the activity in data set [6] is 25%.

`N[C@@H](Cc1ccccc1)C(=O)O` [phenylalanine]: the activity in data set [6] is recorded as 90%.

Take `N[C@@H](Cc1c[nH]c2ccccc12)C(=O)O` [tryptophan]: in data set [6], the activity is recorded as 85%.

On to `N[C@@H](Cc1ccc(O)cc1)C(=O)O` [tyrosine], for which the activity in data set [6] is listed as 100%.

Take Cytochrome bd-II: in data set [7], the “In vivo sp act” value is reported as 70 ± 12 mol O2/mol cytochrome bd/s. Besides, the Vmax in data set [7] is on record as 818 ± 75 mol O/mol cytochrome bd/s. Further, the Km was 2 ± 0.3 µM in data set [7] (read-out: Km (O2) at pH 7) and 250 ± 45 µM in data set [7] (read-out: Km (UQ-H2) at pH 7).

B1: 0008n: Gene ID 0008 (native), sucD, Clostridium kluyveri DSM 555, Succinic semialdehyde dehydrogenase (CoA-dependent) (protein, UniProt P38947 1-453, looked up)
Succinate-semialdehyde …: MSNEVSIKELIEKAKVAQKKLEAYSQEQVDVLVKALGKVVYDNAEMFAKEAVEETEMGVYEDKVAKCHLKSGAIWNHIKDKKTVGIIKEEPERALVYVAKPKGVVAATTPITNPVVTPMCNAMAAIKGRNTIIVAPHPKAKKVSAHTVELMNAELKKLGAPENIIQIVEAPSREAAKELMESADVVIATGGAGRVKAAYSSGRPAYGVGPGNSQVIVDKGYDYNKAAQDIITGRKYDNGIICSSEQSVIAPAEDYDKVIAAFVENGAFYVEDEETVEKFRSTLFKDGKINSKIIGKSVQIIADLAGVKVPEGTKVIVLKGKGAGEKDVLCKEKMCPVLVALKYDTFEEAVEIAMANYMYEGAGHTAGIHSDNDENIRYAGTVLPISRLVVNQPATTAGGSFNNGFNPTTTLGCGSWGRNSISENLTYEHLINVSRIGYFNKEAKVPSYEEIWG
As for B1, the BDO/OD in data set [8] (Aerobic) was 47.6; in data set [8] (Anaerobic) it was 98.1; in [8] (Microaerobic) it was 41.9. For the same molecule, the values for the BDO in data set [8] (Aerobic), in data set [8] (Anaerobic) and in [8] (Microaerobic) were 255.8 µM, 60.8 µM and 127.9 µM, respectively.

B2: 0013: Gene ID 0013, bdhB, Clostridium acetobutylicum ATCC 824, Butanol dehydrogenase II (protein, UniProt Q04945 1-390, looked up)
NADH-dependent butanol …: MVDFEYSIPTRIFFGKDKINVLGRELKKYGSKVLIVYGGGSIKRNGIYDKAVSILEKNSIKFYELAGVEPNPRVTTVEKGVKICRENGVEVVLAIGGGSAIDCAKVIAAACEYDGNPWDIVLDGSKIKRVLPIASILTIAATGSEMDTWAVINNMDTNEKLIAAHPDMAPKFSILDPTYTYTVPTNQTAAGTADIMSHIFEVYFSNTKTAYLQDRMAEALLRTCIKYGGIALEKPDDYEARANLMWASSLAINGLLTYGKDTNWSVHLMEHELSAYYDITHGVGLAILTPNWMEYILNNDTVYKFVEYGVNVWGIDKEKNHYDIAHQAIQKTRDYFVNVLGLPSRLRDVGIEEEKLDIMAKESVKLTGGTIGNLRPVNASEVLQIFKKSV
In the case of B2, in data set [9], the “Alcohol dehydrogenase, Substrate Acetaldehyde” value is 0.0142 μmol min^−1 mg cell protein^−1 and the “Alcohol dehydrogenase, Substrate Butyraldehyde” value is listed as 0.0130 μmol min^−1 mg cell protein^−1.

B3: Cytochrome bo (protein, UniProt P0ABJ1 25-315; P0ABI8 1-663; P0ABJ3 1-204; P0ABJ6 1-109, looked up)
Cytochrome bo(3) ubiquinol … 1: CNSALLDPKGQIGLEQRSLILTAFGLMLIVVIPAILMAVGFAWKYRASNKDAKYSPNWSHSNKVEAVVWTVPILIIIFLAVLTWKTTHALEPSKPLAHDEKPITIEVVSMDWKWFFIYPEQGIATVNEIAFPANTPVYFKVTSNSVMNSFFIPRLGSQIYAMAGMQTRLHLIANEPGTYDGISASYSGPGFSGMKFKAIATPDRAAFDQWVAKAKQSPNTMSDMAAFEKLAAPSEYNQVEYFSNVKPDLFADVINKFMAHGKSMDMTQPEGEHSAHEGMEGMDMSHAESAH
Cytochrome bo(3) ubiquinol … 2: MFGKLSLDAVPFHEPIVMVTIAGIILGGLALVGLITYFGKWTYLWKEWLTSVDHKRLGIMYIIVAIVMLLRGFADAIMMRSQQALASAGEAGFLPPHHYDQIFTAHGVIMIFFVAMPFVIGLMNLVVPLQIGARDVAFPFLNNLSFWFTVVGVILVNVSLGVGEFAQTGWLAYPPLSGIEYSPGVGVDYWIWSLQLSGIGTTLTGINFFVTILKMRAPGMTMFKMPVFTWASLCANVLIIASFPILTVTVALLTLDRYLGTHFFTNDMGGNMMMYINLIWAWGHPEVYILILPVFGVFSEIAATFSRKRLFGYTSLVWATVCITVLSFIVWLHHFFTMGAGANVNAFFGITTMIIAIPTGVKIFNWLFTMYQGRIVFHSAMLWTIGFIVTFSVGGMTGVLLAVPGADFVLHNSLFLIAHFHNVIIGGVVFGCFAGMTYWWPKAFGFKLNETWGKRAFWFWIIGFFVAFMPLYALGFMGMTRRLSQQIDPQFHTMLMIAASGAVLIALGILCLVIQMYVSIRDRDQNRDLTGDPWGGRTLEWATSSPPPFYNFAVVPHVHERDAFWEMKEKGEAYKKPDHYEEIHMPKNSGAGIVIAAFSTIFGFAMIWHIWWLAIVGFAGMIITWIVKSFDEDVDYYVPVAEIEKLENQHFDEITKAGLKNGN
Cytochrome bo(3) ubiquinol … 3: MATDTLTHATAHAHEHGHHDAGGTKIFGFWIYLMSDCILFSILFATYAVLVNGTAGGPTGKDIFELPFVLVETFLLLFSSITYGMAAIAMYKNNKSQVISWLALTWLFGAGFIGMEIYEFHHLIVNGMGPDRSGFLSAFFALVGTHGLHVTSGLIWMAVLMVQIARRGLTSTNRTRIMCLSLFWHFLDVVWICVFTVVYLMGAM
Cytochrome bo(3) ubiquinol … 4: MSHSTDHSGASHGSVKTYMTGFILSIILTVIPFWMVMTGAASPAVILGTILAMAVVQVLVHLVCFLHMNTKSDEGWNMTAFVFTVLIIAILVVGSIWIMWNLNYNMMMH
As to B3, the Vmax in data set [7] is 225 mol O/mol cytochrome bd/s.
